From PubChem BioAssay (NCI)
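Tested at 5 concentrations; 48 h exposure; 96-well plates; endpoints linearly interpolated, else capped at highest concentration. GI50 = concentration required for 50% inhibition of growth. TGI marks complete inhibition of growth.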

Assays:
Assay in all cases: NCI anticancer screen, dose series, 48 h
[1] = test system: HS 578T breast
[2] = test system: BT-549 breast
[3] = test system: RPMI-8226 leukemia
[4] = test system: SF-268 CNS
[5] = test system: HL-60(TB) leukemia
[6] = test system: M14 melanoma
[7] = test system: UACC-62 melanoma
[8] = test system: HCT-15 colon
[9] = test system: SNB-75 CNS
[10] = test system: PC-3 prostate

Structure (SMILES) | GI50 [1] | TGI [1] | GI50 [2] | TGI [2] | GI50 [3] | TGI [3] | GI50 [4] | TGI [4] | GI50 [5] | TGI [5] | GI50 [6] | TGI [6] | GI50 [7] | TGI [7] | GI50 [8] | TGI [8] | GI50 [9] | TGI [9] | GI50 [10] | TGI [10]
COc1ccc([C@H]2c3cc(OC)c(OC)cc3C=C(C=O)C2CO)cc1OC (stereo partly drawn) | 2.72 µM | 17.3 µM | > 100 µM | > 100 µM | 9.22 µM | > 100 µM | 4.74 µM | > 100 µM | 3.65 µM | > 100 µM | 4.41 µM | > 100 µM | 4.32 µM | > 100 µM | 5.03 µM | > 100 µM |  |  |  | 
CCCCc1ccc2nc(NC(=O)OC)[nH]c2c1 | 0.0266 µM | 0.649 µM | 0.0707 µM | 12.4 µM | 0.0331 µM |  | 0.0616 µM | 16.9 µM |  |  | 0.0351 µM | 0.69 µM | 0.0451 µM | > 59.1 µM | 0.0434 µM | > 95.2 µM | 0.0257 µM | 1.18 µM | 0.0413 µM | > 82.7 µM
COC1OC(OC)C2C(c3c(C)cc(C)cc3C)=NOC12 (stereo not drawn) |  |  |  |  |  | > 100 µM |  | > 100 µM |  | > 100 µM |  | > 100 µM |  | > 100 µM |  | > 100 µM |  | > 100 µM |  | 
N/C(=N\N=C\c1ccc2c(c1)OCO2)NO |  | > 100 µM |  |  |  | 56.9 µM |  | 75.4 µM |  | 36 µM |  | 32.5 µM |  | 49.2 µM |  | > 100 µM |  |  |  | > 100 µM
COc1ccc(C(=O)O/N=C2\CCCC\C2=C/c2ccccc2)cc1 |  |  |  |  |  |  |  | > 100 µM |  | > 100 µM |  | > 100 µM |  | > 100 µM |  | > 100 µM |  | 62 µM |  | 
CC/C(=C(\c1ccccc1)c1ccc(OCCN(C)C)cc1)c1ccccc1 |  |  | 6.8 µM |  | 1.2 µM |  |  |  | 1.78 µM |  | 1.02 µM |  | 1.75 µM |  | 2.01 µM |  |  |  | 2.47 µM | 
COc1ccc(NC(=O)CC/C(CC(=O)c2ccco2)=N/Nc2ccc([N+](=O)[O-])cc2[N+](=O)[O-])cc1 |  |  |  |  |  | 82.3 µM |  | > 100 µM |  | 88.8 µM |  | > 100 µM |  | > 100 µM |  | > 100 µM |  | > 100 µM |  | 
CCOC(=O)c1cc2c(n1Cc1cccc(OC)c1)-c1oncc1CC2 | 0.742 µM | 8.16 µM |  |  | 3.52 µM | > 100 µM | 18 µM | > 100 µM | 0.297 µM | 1.63 µM | 0.432 µM | 35.3 µM | 0.541 µM | > 100 µM | 0.521 µM | > 100 µM | 0.399 µM | 3.03 µM | 5.19 µM | > 100 µM
COC(=O)C1=Cc2cc3c(cc2[C@H](c2ccc4c(c2)OCO4)C1C(=O)OC)OCO3 (stereo partly drawn) |  |  |  |  |  | > 100 µM |  | > 100 µM |  | > 100 µM |  | > 100 µM |  | > 100 µM |  | > 100 µM |  | > 100 µM |  | 
COc1c2occc2c(OC)c2c(=O)c(S(=O)(=O)NC(=O)Nc3ccc(Cl)cc3)coc12 |  | > 10 µM |  | > 10 µM |  | > 10 µM |  | > 10 µM |  | > 10 µM |  | > 10 µM |  | > 10 µM |  | > 10 µM |  |  |  | > 10 µM
CCCCN(CCCC)C(=Nc1ccccc1)N(CCCC)CCCC |  |  |  |  |  | 4.42 µM |  | 46.8 µM |  | 4.09 µM |  |  |  |  |  |  |  | 37.7 µM |  | 
O=C(Nc1nc2ncn(CCOC(=O)c3ccccc3)c2c(=O)[nH]1)c1ccccc1 |  | 51.7 µM |  |  |  | > 100 µM |  | > 100 µM |  | > 24.6 µM |  | > 100 µM |  | > 100 µM |  | > 100 µM |  | > 71.7 µM |  | > 100 µM
CC(C)NC(=O)OCc1nnn2c1C(OC(=O)NC(C)C)CC2 (stereo not drawn) |  |  |  |  |  | > 100 µM |  |  |  |  |  | > 100 µM |  | > 100 µM |  | > 100 µM |  | > 100 µM |  | 
CCOC(=O)C(C(=O)c1ccccc1-c1ccccc1C(=O)O)=P(c1ccccc1)(c1ccccc1)c1ccccc1 |  |  |  |  |  | 78.9 µM |  | > 100 µM |  | 57.5 µM |  | > 100 µM |  | 33 µM |  | 74.8 µM |  | 47.8 µM |  | 
Cc1cc2c(-c3nc4ccccc4[nH]3)c(O)c(O)cc2c(O)c1-c1c(C)cc2c(-c3nc4ccccc4[nH]3)c(O)c(O)cc2c1O | 0.0629 µM | > 50 µM | 0.0235 µM | 1.13 µM | 0.0323 µM | 22.3 µM | 0.0312 µM | 3.72 µM | 0.0328 µM | > 50 µM | 0.08 µM | > 50 µM |  |  | 0.0156 µM | 19.8 µM | 0.0389 µM | 2.11 µM | 0.0187 µM | > 34.4 µM
COC1CC(OC2OC(CO)C(O)C(O)C2O)/C(=C\C#N)C(O)C1OC (stereo not drawn) |  | > 100 µM |  | > 100 µM |  | > 100 µM |  | > 100 µM |  | > 100 µM |  | > 100 µM |  | > 100 µM |  | > 100 µM |  |  |  | > 100 µM
COC(=O)C1=CC(=O)C(C(=O)Nc2ccc(OC)cc2)C(c2ccccc2)O1 (stereo not drawn) |  |  |  |  |  | > 100 µM |  | 37.3 µM |  | > 100 µM |  | 98.7 µM |  | > 89.6 µM |  | > 100 µM |  | 43.1 µM |  | 
CCN(CC)CCN(C)CC(C)(C)C(=O)/C=C/c1ccccc1 |  |  |  |  |  | 36 µM |  | 27.2 µM |  | 28.9 µM |  | 25.7 µM |  | 26.9 µM |  | 28.4 µM |  | 18.3 µM |  | 
COc1ccccc1/C=C1\COc2ccc(O)c(O)c2C1=O | 3.6 µM | > 100 µM | 2.48 µM | 7.53 µM | 0.235 µM | 0.693 µM | 2.22 µM | 8.42 µM | 0.407 µM | 4.49 µM | 2.19 µM | 8.38 µM | 1.59 µM | 3.29 µM | 0.823 µM | 4.54 µM |  |  | 1.43 µM | 11.3 µM
CCCCNC(=S)Nn1c(-c2ccccc2)nc2ccccc2c1=O |  |  |  |  |  | > 100 µM |  | > 100 µM |  | > 100 µM |  | > 100 µM |  | > 100 µM |  | > 100 µM |  | > 100 µM |  | 
